Experimental data: patent US20210169892A1, “MODULATORS OF THE INTEGRATED STRESS PATHWAY” (Calico Life Sciences LLC, priority 2017, published 2021)

System: HEK293T cells carrying the ATF4 luciferase reporter
Assay: ATF4-Luc assay (in vitro model of vanishing white matter disease)
Type: cell-based
Conditions: Homo sapiens, HEK-293T; HEK293T cells with ATF4 luciferase reporter, 1 μg/mL tunicamycin, 7 hours, One Glo luminescence
Protocol: In order to test exemplary compounds of the invention in a cellular context, a stable VWMD cell line was first constructed. The ATF4 reporter was prepared by fusing the human full-length ATF4 5′-UTR (NCBI Accession No. BC022088.2) in front of the firefly luciferase (FLuc) coding sequence lacking the initiator methionine as described in Sidrauski et al (eLife 2013). The construct was used to produce recombinant retroviruses using standard methods and the resulting viral supernatant was used to transduce HEK293T cells, which were then subsequently selected with puromycin to generate a stable cell line.
HEK293T cells carrying the ATF4 luciferase reporter were plated on polylysine coated 384-well plates (Greiner Bio-one) at 30,000 cells per well. Cells were treated the next day with 1 μg/mL tunicamycin and 200 nM of a compound of Formula (I) for 7 hours. Luminescence was measured using One Glo (Promega) as specified by the manufacturer. Cells were maintained in DMEM with L-glutamine supplemented with 10% heat-inactivated FBS (Gibco) and Antibiotic-Antimycotic solution (Gibco).
Table 2 below summarizes the EC50 data obtained using the ATF4-Luc assay for exemplary compounds of the invention.

SMILES: O=C(COc1ccc(Cl)c(F)c1)NC12CC(NC(=O)[C@H]3CNc4cc(Cl)ccc4O3)(C1)C2 (single isomer, unassigned) [Compound 102]
- EC50: < 0.01 µM

SMILES: O=C(COc1ccc(Cl)c(F)c1)NC12CC(NC(=O)[C@@H]3CNc4cc(Cl)ccc4O3)(C1)C2 (single isomer, unassigned) [Compound 103]
- EC50: < 0.01 µM

SMILES: CN1C[C@@H](C(=O)NC23CC(NC(=O)COc4ccc(Cl)c(F)c4)(C2)C3)Oc2ccc(Cl)cc21 (single isomer, unassigned) [Compound 104]
- EC50: < 0.01 µM

SMILES: O=C(COc1ccc(Cl)c(F)c1)NC12CC(NC(=O)[C@H]3CN(C(=O)[C@H]4C[C@H]4F)c4cc(Cl)ccc4O3)(C1)C2 (single isomer, unassigned) [Compound 142]
- EC50: 0.05 to 0.25 µM

SMILES: O=C(COc1ccc(Cl)c(F)c1)NC12CC(NC(=O)[C@@H]3CN(C(=O)[C@H]4C[C@H]4F)c4cc(Cl)ccc4O3)(C1)C2 (single isomer, unassigned) [Compound 144]
- EC50: 0.05 to 0.25 µM

SMILES: O=C(COc1ccc(Cl)c(F)c1)NC12CC(NC(=O)[C@@H]3C[C@H](O)c4cc(Cl)ccc4O3)(C1)C2 (single isomer, unassigned) [Compound 195]
- EC50: < 0.01 µM

SMILES: CC(C)(C)OC(=O)CN1C[C@@H](C(=O)NC23CCC(NC(=O)COc4ccc(Cl)c(F)c4)(CC2)C(O)C3)Oc2ccc(Cl)cc21 (stereo in doubt) [Compound 184, tert-butyl [(2S)-6-chloro-2-({(3S)-4-[2-(4-chloro-3-fluorophenoxy)acetamido]-3-hydroxybicyclo[2.2.2]octan-1-yl}carbamoyl)-2,3-dihydro-4H-1,4-benzoxazin-4-yl]acetate]
- EC50: 0.25 to 0.5 µM

SMILES: O=C(COc1ccc(Cl)c(F)c1)NC12CCC(NC(=O)C3Oc4ccccc4O3)(CC1)CC2 [Compound 100, N-{4-[2-(4-chloro-3-fluorophenoxy)acetamido]bicyclo[2.2.2]octan-1-yl}-2H-1,3-benzodioxole-2-carboxamide]
- EC50: > 2 µM

SMILES: O=C(CN1CCc2cc(Cl)ccc21)NC12CCC(NC(=O)COc3ccc(Cl)c(F)c3)(CC1)[C@@H](O)C2 [Compound 101, 2-(5-chloro-2,3-dihydro-1H-indol-1-yl)-N-{(3S)-4-[2-(4-chloro-3-fluorophenoxy)acetamido]-3-hydroxybicyclo[2.2.2]octan-1-yl}acetamide]
- EC50: 0.5 to 2 µM

SMILES: O=C(COc1ccc(Cl)c(F)c1)NC12CCC(NC(=O)[C@@H]3CCc4cc(F)ccc4O3)(CC1)C[C@@H]2O [Compound 105, (2S)—N-{(3S)-4-[2-(4-chloro-3-fluorophenoxy)acetamido]-3-hydroxybicyclo[2.2.2]octan-1-yl}-6-fluoro-3,4-dihydro-2H-1-benzopyran-2-carboxamide]
- EC50: < 0.01 µM

SMILES: O=C(COc1ccc(Cl)c(F)c1)NC12CCC(NC(=O)[C@H]3CCc4cc(F)ccc4O3)(CC1)C[C@@H]2O [Compound 106, (2R)—N-{(3S)-4-[2-(4-chloro-3-fluorophenoxy)acetamido]-3-hydroxybicyclo[2.2.2]octan-1-yl}-6-fluoro-3,4-dihydro-2H-1-benzopyran-2-carboxamide]
- EC50: < 0.01 µM

SMILES: CN1C[C@@H](C(=O)NC23CCC(NC(=O)COc4ccc(Cl)c(F)c4)(CC2)[C@@H](O)C3)Oc2ccc(Cl)cc21 [Compound 107, 6-chloro-N-{(3S)-4-[2-(4-chloro-3-fluorophenoxy)acetamido]-3-hydroxybicyclo[2.2.2]octan-1-yl}-4-methyl-3,4-dihydro-2H-1,4-benzoxazine-2-carboxamide]
- EC50: < 0.01 µM

SMILES: O=C(COc1ccc(Cl)c(F)c1)NC12CC(NC(=O)C3CNc4cc(F)c(F)cc4O3)(C1)C2 (centres unmarked) [Compound 108, N-{3-[2-(4-chloro-3-fluorophenoxy)acetamido]bicyclo[1.1.1]pentan-1-yl}-6,7-difluoro-3,4-dihydro-2H-1,4-benzoxazine-2-carboxamide]
- EC50: < 0.01 µM

SMILES: O=C(COc1ccc(Cl)c(F)c1)NC12CC(NC(=O)C3Oc4ccccc4NC3=O)(C1)C2 (centres unmarked) [Compound 109, N-{3-[2-(4-chloro-3-fluorophenoxy)acetamido]bicyclo[1.1.1]pentan-1-yl}-3-oxo-3,4-dihydro-2H-1,4-benzoxazine-2-carboxamide]
- EC50: 0.5 to 2 µM

SMILES: O=C(COc1ccc(Cl)c(F)c1)NC12CCC(NC(=O)C3CNc4ccccc4O3)(CC1)C[C@@H]2O (stereo partly drawn) [Compound 110, N-{(3S)-4-[2-(4-chloro-3-fluorophenoxy)acetamido]-3-hydroxybicyclo[2.2.2]octan-1-yl}-3,4-dihydro-2H-1,4-benzoxazine-2-carboxamide]
- EC50: 0.01 to 0.05 µM

SMILES: CN1CC(C(=O)NC23CCC(NC(=O)COc4ccc(Cl)c(F)c4)(CC2)[C@@H](O)C3)Oc2ccccc21 (stereo partly drawn) [Compound 111, N-{(3S)-4-[2-(4-chloro-3-fluorophenoxy)acetamido]-3-hydroxybicyclo[2.2.2]octan-1-yl}-4-methyl-3,4-dihydro-2H-1,4-benzoxazine-2-carboxamide]
- EC50: 0.05 to 0.25 µM

SMILES: CN1CC(C(=O)NC23CC(NC(=O)COc4ccc(Cl)c(F)c4)(C2)C3)Oc2ccc(Cl)cc21 (centres unmarked) [Compound 112, 6-chloro-N-{3-[2-(4-chloro-3-fluorophenoxy)acetamido]bicyclo[1.1.1]pentan-1-yl}-4-methyl-3,4-dihydro-2H-1,4-benzoxazine-2-carboxamide]
- EC50: < 0.01 µM

SMILES: O=C(COc1ccc(Cl)c(F)c1)NC12CC(NC(=O)C3CNc4cc(Cl)ccc4O3)(C1)C2 (centres unmarked) [Compound 113, 6-chloro-N-{3-[2-(4-chloro-3-fluorophenoxy)acetamido]bicyclo[1.1.1]pentan-1-yl}-3,4-dihydro-2H-1,4-benzoxazine-2-carboxamide]
- EC50: < 0.01 µM

SMILES: O=C(COc1ccc(Cl)c(F)c1)NC12CCC(NC(=O)C3CNc4cc(Cl)ccc4O3)(CC1)C[C@@H]2O (stereo partly drawn) [Compound 114, 6-chloro-N-{(3S)-4-[2-(4-chloro-3-fluorophenoxy)acetamido]-3-hydroxybicyclo[2.2.2]octan-1-yl}-3,4-dihydro-2H-1,4-benzoxazine-2-carboxamide]
- EC50: < 0.01 µM

SMILES: O=C(COc1ccc(Cl)c(F)c1)NC12CCC(NC(=O)[C@H]3COc4cc(Cl)ccc4O3)(CC1)C[C@@H]2O [Compound 115, (2R)-6-chloro-N-{(3S)-4-[2-(4-chloro-3-fluorophenoxy)acetamido]-3-hydroxybicyclo[2.2.2]octan-1-yl}-2,3-dihydro-1,4-benzodioxine-2-carboxamide]
- EC50: < 0.01 µM

SMILES: O=C(COc1ccc(Cl)c(Cl)c1)NC12CCC(NC(=O)[C@H]3COc4cc(Cl)ccc4O3)(CC1)C[C@@H]2O [Compound 116, (2R)-6-chloro-N-{(3S)-4-[2-(3,4-dichlorophenoxy)acetamido]-3-hydroxybicyclo[2.2.2]octan-1-yl}-2,3-dihydro-1,4-benzodioxine-2-carboxamide]
- EC50: < 0.01 µM

SMILES: O=C(COc1ccc(F)c(F)c1)NC12CC(NC(=O)C3COc4cc(Cl)c(Cl)cc4O3)(C1)C2 (centres unmarked) [Compound 117, 6,7-dichloro-N-{3-[2-(3,4-difluorophenoxy)acetamido]bicyclo[1.1.1]pentan-1-yl}-2,3-dihydro-1,4-benzodioxine-2-carboxamide]
- EC50: < 0.01 µM

SMILES: O=C(COc1ccc(Cl)c(F)c1)NC12CC(NC(=O)C3COc4cc(F)c(F)cc4O3)(C1)C2 (centres unmarked) [Compound 118, N-{3-[2-(4-chloro-3-fluorophenoxy)acetamido]bicyclo[1.1.1]pentan-1-yl}-6,7-difluoro-2,3-dihydro-1,4-benzodioxine-2-carboxamide]
- EC50: < 0.01 µM

SMILES: O=C(COc1ccc(Cl)c(F)c1)NC12CC(NC(=O)[C@H]3COc4cc(Cl)ccc4O3)(C1)C2 [Compound 119, (2R)-6-chloro-N-{3-[2-(4-chloro-3-fluorophenoxy)acetamido]bicyclo[1.1.1]pentan-1-yl}-2,3-dihydro-1,4-benzodioxine-2-carboxamide]
- EC50: < 0.01 µM

SMILES: O=C(COc1ccc(Cl)c(F)c1)NC12CC(NC(=O)[C@H]3CCc4cc(F)ccc4O3)(C1)C2 [Compound 120, (2R)—N-{3-[2-(4-chloro-3-fluorophenoxy)acetamido]bicyclo[1.1.1]pentan-1-yl}-6-fluoro-3,4-dihydro-2H-1-benzopyran-2-carboxamide]
- EC50: < 0.01 µM

SMILES: O=C(COc1ccc(Cl)c(F)c1)NC12CC(NC(=O)[C@@H]3CCc4cc(F)ccc4O3)(C1)C2 [Compound 121, (2S)—N-{3-[2-(4-chloro-3-fluorophenoxy)acetamido]bicyclo[1.1.1]pentan-1-yl}-6-fluoro-3,4-dihydro-2H-1-benzopyran-2-carboxamide]
- EC50: < 0.01 µM

SMILES: O=C(COc1ccc(Cl)c(F)c1)NC12CC(NC(=O)C3COc4ccccc4O3)(C1)C2 (centres unmarked) [Compound 122, N-{3-[2-(4-chloro-3-fluorophenoxy)acetamido]bicyclo[1.1.1]pentan-1-yl}-2,3-dihydro-1,4-benzodioxine-2-carboxamide]
- EC50: 0.01 to 0.05 µM

SMILES: O=C(COc1ccc(Cl)c(F)c1)NC12CCC(NC(=O)C3COc4ccccc4O3)(CC1)[C@H](O)C2 (stereo partly drawn) [Compound 123, N-{(2R)-4-[2-(4-chloro-3-fluorophenoxy)acetamido]-2-hydroxybicyclo[2.2.2]octan-1-yl}-2,3-dihydro-1,4-benzodioxine-2-carboxamide]
- EC50: 0.25 to 0.5 µM

SMILES: O=C(COc1ccc(Cl)c(F)c1)NC12CC(NC(=O)[C@H]3COc4ccccc4O3)(C1)C2 [Compound 124, (2R)—N-{3-[2-(4-chloro-3-fluorophenoxy)acetamido]bicyclo[1.1.1]pentan-1-yl}-2,3-dihydro-1,4-benzodioxine-2-carboxamide]
- EC50: 0.01 to 0.05 µM
